Assay results published in patent US20120095059A1, “Compositions and Methods for Treating Type II Diabetes and Related Disorders” (priority 2010, published 2012).

What was measured:
[1] = system: patients with advanced type 2 diabetes; assay: Predicted effect of adding metformin as a third agent, based upon a meta-analysis of metformin clinical trials; format: in vivo, human; conditions: metformin added as third agent to pioglitazone plus glimepiride
Description: Patients having HbA1c levels greater than 7% have a high risk for developing cardiovascular disease and other complications of diabetes. Thus, in these patients, it is necessary to add a third agent to the regimen in order to obtain HbA1c values below 7%. Based upon a meta-analysis of metformin clinical trials, the addition of metformin as a third agent to this regimen will produce an additional reduction in HbA1c of about 1% and will contribute to adequate glycemic control in such patients with advanced type 2 diabetes. The addition of metformin in this triple therapy provides a synergistic mechanism of action, both improving insulin sensitivity and suppressing hepatic glucose output.

[2] = system: patients with type 2 diabetes mellitus; conditions: monotherapy; Rosenstock et al., Diabetes Care 25:1529-1533 (2002); cited from earlier work
[3] = system: patients with type 2 diabetes; assay: 12-week, double blind, randomized, parallel group, multi-center study of pioglitazone, glimepiride or their combination; format: in vivo, human; conditions: after 12 weeks, pioglitazone 15 mg per day, glimepiride 2 mg per day, or both; for HbA1c levels, change from baseline: baseline HbA1c greater than 8%
Procedure: Objective: […] Research Design and Methods: The study was a 12-week, double blind, randomized, parallel group, multi-center study, with 120 patients randomized to receive pioglitazone (15 mg per day), glimepiride (2 mg per day), or a combination of pioglitazone plus glimepiride (15 mg per day; 2 mg per day). Patients started a strict dietary regimen 1 week before receiving the first dose of each treatment. The study was open to patients with type 2 diabetes mellitus and having HbA1c levels greater than 8%. Patients were over 30 years of age and have had diabetes for at least 1 year.

SMILES | additional reduction in HbA1c [1] | reduction in HbA1c [2] [%] | fasting blood glucose, decrease from baseline [3] [mg/dL] | HbA1c levels, change from baseline [3] [%]
CN(C)C(=N)N=C(N)N [metformin] | about 1% | – | – | –
CC(C)[C@H]1CC[C@H](C(=O)N[C@H](Cc2ccccc2)C(=O)O)CC1 [nateglinide] | – | 0.6 | – | –
CCc1ccc(CCOc2ccc(CC3SC(=O)NC3=O)cc2)nc1 (stereo not drawn) [pioglitazone] | – | – | -28 | −0.14
CCC1=C(C)CN(C(=O)NCCc2ccc(S(=O)(=O)NC(=O)N[C@H]3CC[C@H](C)CC3)cc2)C1=O [glimepiride] | – | – | -22 | −0.98
